From patent US20070264324A1, “Use of Vegetable Anthraquinone Derivatives and Vegetable Polysaccharides For Treating Human Immunodeficiency Virus (HIV)” (priority 2004, published 2007)

System: TC740 cells
Assay type: cell-based
Details: 72 h
Method: The present invention relates to using emodin and RRP to inhibit HIV in an exogenous (however endocellular) environment, in order to attest their anti-HIV effectiveness. More specifically, the invention includes: • 1. Preparing emodin and RRP solutions with various concentrations (70-98% for emodin, and 80-95% for RRP). • 2. Culturing test subjects containing 100 μL of cells using cell incubator under 37° C. and 5% CO2 for 24 hours, forming monolayer on each culture media. • 3. Testing the toxicity of the agents: apply Rheum rhaponticum extractions to the monolayer on culture medium. Maintain the culture media under 37° C. and 5% CO2 for 72 hours, and observe the monolayer for cellular viability. […] These standard concentrations of emodin range between 70% and 98%, and those of RRP range between 80% and 95%. • 4. Testing the anti-HIV effectiveness of emodin and RRP: apply a specific concentration of HIV to those culture medium containing viable cells and already applied with emodin and/or RRP. Observe the viability of cells, and compare them with those in the control groups.
3. Cytotoxicity test: apply an emodin/RRP mixture with a concentration between 1600 μg/mL and 25 μg/mL to the culture medium, and maintain the medium under […] for 72 hours before observing.

Structure (SMILES): Cc1cc(O)c2c(c1)C(=O)c1cc(O)cc(O)c1C2=O [emodin]
- standard concentrations that do not affect the growth of cells: 70% and 98%
